Source: paper PMC8826726, “Selective Toxicity of Secondary Metabolites from the Entomopathogenic Bacterium Photorhabdus luminescens sonorensis against Selected Plant Parasitic Nematodes of the Tylenchina Suborder” (Microbiology Spectrum, 2022)
Values after ≈ are worked out from the molar mass of the structure shown. Read-outs that look alike come from different tables or passages of the source.

Assays:
[1] = system: SF-268 (central nervous system glioma); assay: MTT cytotoxicity assay; type: cell-based, human; settings: tested at 50, 100, 200 μM, data not shown
Protocol: (§1) The non-cancerous HFF cells (human foreskin cells) and three human cancer cell lines, NCI-H460 (non-small cell lung cancer), SF-268 (central nervous system glioma), and MCF-7 (breast cancer) were used to evaluate the in vitro cytotoxicity of the isolated Photorhabdus SMs. The MTT (3-(4,5-dimethylthiazol-2-yl)-2,5-diphenyltetrazolium bromide) colorimetric method ([54]) was used with doxorubicin as the positive control, and DMSO as the negative control. Photorhabdus SMs were tested at 50, 100, and 200 μM concentrations, and the assays were repeated three times.

MCF-7 (breast cancer) = assay: MTT cytotoxicity assay; type: cell-based, human; settings: tested at 50, 100, 200 μM, data not shown
Protocol: as §1

[2] = system: NCI-H460 (non-small cell lung cancer); assay: MTT cytotoxicity assay; type: cell-based, human; settings: tested at 50, 100, 200 μM, data not shown
Protocol: as §1

H. bacteriophora = assay: In vitro nematistatic assay (temporary paralysis), non-target species; type: cell-based; settings: Heterorhabditis bacteriophora; reversible paralysis, 24 h exposure
S. carpocapsae = assay: as above; type: cell-based; settings: Steinernema carpocapsae; reversible paralysis, 24 h exposure
R. blumi = assay: as above; type: cell-based, Rhabditis blumi
[3] = system: HFF cells (human foreskin cells); assay: MTT cytotoxicity assay; type: cell-based; settings: tested at 50, 100, 200 μM, data not shown
Protocol: as §1

C. elegans = assay: In vitro nematistatic assay (temporary paralysis), non-target species; type: cell-based; settings: Caenorhabditis elegans; reversible paralysis, 24 h exposure
Meloidogyne incognita J2 = assay: Recovery from indole-induced temporary paralysis after rinsing with water; type: cell-based
[4] = system: Tylenchulus semipenetrans J2 juveniles; assay: In vitro nematistatic assay (temporary paralysis); type: cell-based; settings: for EC50 / EC90 / EC10 / EC25: temporary paralysis
[5] = system: Meloidogyne incognita J2 juveniles; assay: In vitro nematistatic assay (temporary paralysis); type: cell-based
[6] = system: non-target nematodes versus targeted PPNs; assay: Selectivity index, non-target nematodes over targeted PPNs
Protocol: The selectivity index of a given SM was calculated by dividing the averages of the LC50 or EC50 values obtained against each of the selected non-target nematodes by the LC50 or the EC50 values observed for each of the targeted PPN tested.

H. sonorensis = assay: In vitro nematistatic assay (temporary paralysis), non-target species; type: cell-based; settings: Heterorhabditis sonorensis; reversible paralysis, 24 h exposure

c1ccc2[nH]ccc2c1 [Indole, indole]
In vitro cytotoxicity: none even at the highest concentration tested [1]: > 200 µM | In vitro cytotoxicity: none even at the highest concentration tested (MCF-7 (breast cancer)): > 200 µM | In vitro cytotoxicity: none even at the highest concentration tested [2]: > 200 µM | EC50 (H. bacteriophora): > 400 µg/mL | EC50 (S. carpocapsae): > 400 µg/mL | Reduction of 24-h EC50 against R. blumi versus C. elegans (R. blumi; 24 h): 77% | EC50 (R. blumi; Metarhabditis blumi, reversible paralysis, 24 h exposure): 37 µg/mL (≈ 316 µM) | In vitro cytotoxicity: none even at the highest concentration tested [3]: > 200 µM | EC50 (C. elegans): 159 µg/mL (≈ 1360 µM) | Recovery after 24 h in water (Meloidogyne incognita J2; 60 μg/mL, 24-h exposure to treatment): 95.9% | Recovery after 24 h in water (Meloidogyne incognita J2; 60 μg/mL, 72-h exposure to treatment): 95.5% | Recovery after 24 h in water (Meloidogyne incognita J2; 80 μg/mL, 24-h exposure to treatment): 94.9% | Recovery after 24 h in water (Meloidogyne incognita J2; 80 μg/mL, 72-h exposure to treatment): 92.8% | M. incognita regaining baseline mobility during a recovery period of 24 h (Meloidogyne incognita J2; regardless of length of prior exposure (24 h to 72 h)): over 90% | Reduction of EC50 for T. semipenetrans versus M. incognita ([4]; 24 h of exposure): 34% | Increase of EC50 at 72 h compared with 24 h ([4]; T. semipenetrans): 84% | Increase of EC90 at 72 h compared with 24 h ([4]; T. semipenetrans): 79% | EC50 ([4]; Tylenchulus semipenetrans, 24 h, 24 h exposure, read-out: EC50): 37 µg/mL (≈ 316 µM) | EC50 ([4]; Tylenchulus semipenetrans, 48 h, 48 h exposure, read-out: EC50): 66.2 µg/mL (≈ 565 µM) | EC50 ([4]; Tylenchulus semipenetrans, 72 h, 72 h exposure, read-out: EC50): 68.3 µg/mL (≈ 583 µM) | EC90 ([4]; Tylenchulus semipenetrans, 24 h exposure): 64.2 µg/mL (≈ 548 µM) | EC90 ([4]; Tylenchulus semipenetrans, 48 h exposure): 108 µg/mL (≈ 922 µM) | EC90 ([4]; Tylenchulus semipenetrans, 72 h exposure): 115 µg/mL (≈ 982 µM) | EC10 ([4]; 24 h exposure): 21.4 (12.8, 27.9) μg/mL | EC25 ([4]; 24 h exposure): 27.8 (18.9, 34.2) μg/mL | EC50 ([4]; 24 h exposure): 37.1 µg/mL (≈ 317 µM) | EC10 ([4]; 48 h exposure): 40.6 (8.18, 57.5) μg/mL | EC25 ([4]; 48 h exposure): 51.2 (16.1, 67.0) μg/mL | EC10 ([4]; 72 h exposure): 40.5 (13.1, 55.8) μg/mL | EC25 ([4]; 72 h exposure): 51.9 (23.3, 66.0) μg/mL | EC10 ([5]; 24 h exposure): 41.3 (36.8, 44.9) μg/mL | EC25 ([5]; 24 h exposure): 47.8 (43.9, 51.1) μg/mL | EC50 ([5]; 24 h exposure): 56.3 µg/mL (≈ 481 µM) | EC10 ([5]; 48 h exposure): 44.3 (36.8, 49.7) μg/mL | EC25 ([5]; 48 h exposure): 51.7 (45.0, 56.6) μg/mL | EC10 ([5]; 72 h exposure): 62.9 (31.4, 72.3) μg/mL | EC25 ([5]; 72 h exposure): 68.9 (42.1, 76.9) μg/mL | EC50 ([5]; Meloidogyne incognita, 24 h, 24 h exposure, read-out: EC50): 56 µg/mL (≈ 478 µM) | EC90 ([5]; Meloidogyne incognita, 24 h exposure): 77 µg/mL (≈ 657 µM) | EC50 ([5]; Meloidogyne incognita, 48 h, 48 h exposure, read-out: EC50): 61.3 µg/mL (≈ 523 µM) | EC90 ([5]; Meloidogyne incognita, 48 h exposure): 84.7 µg/mL (≈ 723 µM) | EC50 ([5]; Meloidogyne incognita, 72 h, 72 h exposure, read-out: EC50): 76.3 µg/mL (≈ 651 µM) | EC90 ([5]; Meloidogyne incognita, 72 h exposure): 92.5 µg/mL (≈ 790 µM) | Selectivity index (EC50), bacteria-feeding nematodes alone ([6]; 24 h EC50): 2–3 | Selectivity index (EC50), entomopathogenic nematodes alone ([6]; 24 h EC50): 7-11 | Selectivity index (EC50), selected non-target nematode species ([6]; 24 h EC50, all non-target species): 5–8 | EC50 (H. sonorensis): > 400 µg/mL
